Laboratory results as given in patent US8404729B2, “Heterocyclic tetracyclic tetrahydrofuran derivatives” (Janssen Pharmaceutica, NV, priority 2005, dated 2013).

Columns and labels:
5-HT2C receptors = target: T1, 5-HT2C receptors (Sus scrofa, UniProt K7GSR7); test: In vitro binding affinity for 5-HT2C receptor (3H-mesulergine radioligand binding); settings: choroid plexus of the pig, read-out: 5-HT2C (pIC50) (converted)
T1 construct: the tissue used is the choroid plexus of the pig; from tissue; host or cells: pig choroid plexus
T1 sequence (K7GSR7 1-457): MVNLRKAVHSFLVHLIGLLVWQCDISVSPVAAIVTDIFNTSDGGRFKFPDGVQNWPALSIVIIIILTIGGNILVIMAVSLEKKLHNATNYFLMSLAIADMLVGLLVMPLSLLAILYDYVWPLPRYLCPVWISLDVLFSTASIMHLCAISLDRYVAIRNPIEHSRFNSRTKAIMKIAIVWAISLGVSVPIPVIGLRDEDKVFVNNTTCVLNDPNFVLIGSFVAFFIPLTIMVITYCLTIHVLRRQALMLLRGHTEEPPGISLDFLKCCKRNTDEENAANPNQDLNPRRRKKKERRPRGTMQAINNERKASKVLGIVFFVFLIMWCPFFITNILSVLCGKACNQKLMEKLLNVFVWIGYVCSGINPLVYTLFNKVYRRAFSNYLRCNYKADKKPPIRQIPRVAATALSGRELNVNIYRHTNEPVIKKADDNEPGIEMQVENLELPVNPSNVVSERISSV
Procedure: (§1) The interaction of the compounds of Formula (I) with 5-HT2A and 5-HT2C receptors was assessed in in vitro radioligand binding experiments. In general, a low concentration of a radioligand with a high binding affinity for the receptor is incubated with a sample of a tissue preparation enriched in a particular receptor (1 to 5 mg tissue) in a buffered medium (0.2 to 5 ml). During the incubation, the radioligands bind to the receptor. When equilibrium of binding is reached, the receptor bound radioactivity is separated from the non-bound radioactivity, and the receptor bound activity is counted. The interaction of the test compounds with the receptors is assessed in competition binding experiments. Various concentrations of the test compound are added to the incubation mixture containing the tissue preparation and the radioligand. Binding of the radioligand will be inhibited by the test compound in proportion to its binding affinity and its concentration. The radioligand used for 5-HT2A binding affinity is ^3H-ketanserin and the tissue used is the frontal cortex of the rat. The radioligand used for 5-HT2c binding affinity is ^3H-mesulergine and the tissue used is the choroid plexus of the pig.

[1] = target: T2, human Dopamine D2L receptor (Homo sapiens, UniProt P14416); test: In vitro binding affinity for human D2L receptor ([3H]Spiperone); settings: membranes of human D2L receptor-transfected CHO cells, read-out: D2 (pIC50) (converted)
T2 construct: expressed in transfected cells; host or cells: CHO cells
T2 sequence (P14416 whole entry): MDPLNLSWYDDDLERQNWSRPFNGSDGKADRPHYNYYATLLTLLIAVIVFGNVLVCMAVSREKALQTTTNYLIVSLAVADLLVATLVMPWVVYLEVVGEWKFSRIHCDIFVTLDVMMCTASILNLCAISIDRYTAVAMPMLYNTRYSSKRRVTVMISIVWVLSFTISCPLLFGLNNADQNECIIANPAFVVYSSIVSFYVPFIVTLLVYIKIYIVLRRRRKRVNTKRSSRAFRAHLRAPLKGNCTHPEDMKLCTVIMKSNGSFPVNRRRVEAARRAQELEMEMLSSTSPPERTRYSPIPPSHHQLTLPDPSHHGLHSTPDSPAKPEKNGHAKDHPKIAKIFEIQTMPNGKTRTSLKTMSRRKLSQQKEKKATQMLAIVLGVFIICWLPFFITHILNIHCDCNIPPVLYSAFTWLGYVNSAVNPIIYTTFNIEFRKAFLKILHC
Procedure: Frozen membranes of human Dopamine D2L receptor-transfected CHO cells were thawed, briefly homogenised using an Ultra-Turrax T25 homogeniser and diluted in Tris-HCl assay buffer containing NaCl, CaCl2, MgCl2, KCl (50, 120, 2, 1, and 5 mM respectively, adjusted to pH 7.7 with HCl) to an appropriate protein concentration optimised for specific and non-specific binding. Radioligand [^3H]Spiperone (NEN, specific activity ˜70 Ci/mmol) was diluted in assay buffer at a concentration of 2 nmol/L. Prepared radioligand (50 μl), along with 50 μl of either the 10% DMSO control, Butaclamol (10^−6 mol/l final concentration), or compound of interest, was then incubated (30 min, 37° C.) with 400 μl of the prepared membrane solution. Membrane-bound activity was filtered through a Packard Filtermate harvester onto GF/B Unifilterplates and washed with ice-cold Tris-HCl buffer (50 mM; pH 7.7; 6×0.5 ml). Filters were allowed to dry before adding scintillation fluid and counting in a Topcount scintillation counter. Percentage specific bound and competition binding curves were calculated using S-Plus software (Insightful).

NET = target: T3, NET (Rattus norvegicus, UniProt Q63380); test: In vitro determination of NET reuptake inhibition ([3H]Nixosetine binding); settings: rat brain cortex membranes, read-out: NET-inhibition (pIC50) (converted)
T3 construct: Cortex from rat brain was collected and homogenised; from tissue; host or cells: rat brain cortex
T3 sequence (Q63380 1-617): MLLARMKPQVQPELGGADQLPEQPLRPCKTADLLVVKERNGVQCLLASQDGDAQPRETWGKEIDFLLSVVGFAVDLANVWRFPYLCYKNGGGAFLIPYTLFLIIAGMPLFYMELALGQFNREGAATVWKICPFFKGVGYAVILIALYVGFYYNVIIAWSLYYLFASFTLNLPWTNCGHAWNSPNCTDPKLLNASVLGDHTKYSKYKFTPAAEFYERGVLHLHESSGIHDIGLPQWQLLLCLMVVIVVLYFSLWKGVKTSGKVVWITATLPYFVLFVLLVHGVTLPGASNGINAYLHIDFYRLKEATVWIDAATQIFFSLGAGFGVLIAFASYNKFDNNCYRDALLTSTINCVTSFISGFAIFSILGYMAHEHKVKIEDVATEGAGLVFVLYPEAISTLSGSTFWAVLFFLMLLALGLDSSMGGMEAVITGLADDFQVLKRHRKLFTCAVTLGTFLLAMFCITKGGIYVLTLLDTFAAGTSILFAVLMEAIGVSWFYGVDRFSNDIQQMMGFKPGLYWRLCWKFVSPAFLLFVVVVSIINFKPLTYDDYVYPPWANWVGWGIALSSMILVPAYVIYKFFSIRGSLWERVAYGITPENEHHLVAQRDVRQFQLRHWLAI
Procedure: Cortex from rat brain was collected and homogenised using an Ultra-Turrax T25 and a Dual homogeniser in ice-cold homogenising buffer containing Tris, NaCl and KCl (50 mM, 120 mM and 5 mM, respectively, pH 7.4) prior to dilution to an appropriate protein concentration optimised for specific and non-specific binding. […] Membrane-bound activity was detected by filtration through a Packard Filtermate harvester onto GF/B Unifilterplates, washed with ice-cold Tris-HCl buffer, containing NaCl and KCl (50 mM, 120 mM and 4 mM; pH 7.4; 6×0.5 ml). Filters were allowed to dry for 24 h before adding scintillation fluid. Scintillation fluid was allowed to saturate filters for 24 h before counting in a Topcount scintillation counter. Percentage specific bound and competition binding curves were calculated using S-Plus software (Insightful).

5-HT2A receptors = target: T4, 5-HT2A receptors (Rattus norvegicus, UniProt P14842); test: In vitro binding affinity for 5-HT2A receptor (3H-ketanserin radioligand binding); settings: frontal cortex of the rat, read-out: 5-HT2A (pIC50) (converted)
T4 construct: the tissue used is the frontal cortex of the rat; from tissue; host or cells: rat frontal cortex
T4 sequence (P14842 whole entry): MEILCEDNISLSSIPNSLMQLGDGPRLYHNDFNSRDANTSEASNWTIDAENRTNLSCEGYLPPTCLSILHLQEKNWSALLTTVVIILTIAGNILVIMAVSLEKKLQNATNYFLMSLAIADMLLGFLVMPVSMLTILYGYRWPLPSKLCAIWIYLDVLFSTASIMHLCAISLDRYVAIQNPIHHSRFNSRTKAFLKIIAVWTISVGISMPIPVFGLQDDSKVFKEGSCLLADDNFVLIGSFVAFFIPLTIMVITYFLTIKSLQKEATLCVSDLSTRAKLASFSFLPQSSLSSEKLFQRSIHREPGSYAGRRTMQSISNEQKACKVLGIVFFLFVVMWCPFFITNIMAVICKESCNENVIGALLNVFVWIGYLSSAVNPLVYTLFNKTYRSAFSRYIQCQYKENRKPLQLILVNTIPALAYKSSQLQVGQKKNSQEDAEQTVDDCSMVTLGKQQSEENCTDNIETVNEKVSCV
Procedure: as §1, with “In general, a low concentration of a radioligand with a high binding affinity for the receptor is incubated with a sample of a tissue preparation enriched in a particular receptor (1 to 5 mg tissue) in a buffered medium (0.2 to 5 ml).” left out

| SMILES | IC50 (5-HT2C receptors) | IC50 [1] | IC50 (NET) | IC50 (5-HT2A receptors) |
| --- | --- | --- | --- | --- |
| CNCC1CC2c3ccccc3N(Cc3ccccc3)c3ncccc3C2O1 (mixture of isomers) [Compound 37] | 100 nM | 1580 nM | 1260 nM |  |
| CN(C)C[C@H]1C[C@@H]2c3ccccc3Sc3sc(CO)cc3[C@H]2O1 (racemic) [Compound 5] | 20 nM | 200 nM | 398 nM |  |
| CNC[C@H]1C[C@@H]2c3ccccc3Sc3sccc3[C@H]2O1 (racemic) [Compound 20] | 50.1 nM | 1260 nM | 63.1 nM | 79.4 nM |
| CN(CCO)CC1CC2c3ccccc3Sc3sccc3C2O1 (racemic) [Compound 25] | 10 nM | 200 nM | 126 nM | 10 nM |
| CNC[C@H]1C[C@@H]2c3ccccc3Sc3sccc3[C@H]2O1 (racemic) [Compound 32] |  | 2000 nM | 39.8 nM |  |
| CN(CCO)C[C@H]1C[C@H]2c3ccccc3Sc3sccc3[C@@H]2O1 (relative stereo) [Compound 10] | 20 nM | 200 nM | 200 nM | 12.6 nM |
| OCCN1CCN(C[C@H]2C[C@H]3c4ccccc4Sc4sccc4[C@@H]3O2)CC1 (relative stereo) [Compound 12] | 251 nM | 31.6 nM | > 10000 nM | 12.6 nM |
| c1ccc2c(c1)Sc1sccc1[C@@H]1O[C@@H](CN3CCC4(CC3)OCCO4)C[C@@H]21 (relative stereo) [Compound 13] | 100 nM | 20 nM | > 10000 nM | 5.01 nM |
| OCCN1CCN(C[C@H]2C[C@@H]3c4ccccc4Sc4sccc4[C@H]3O2)CC1 (relative stereo) [Compound 15] | 251 nM | 251 nM | 2510 nM | 200 nM |
| OC1CCN(C[C@H]2C[C@@H]3c4ccccc4Sc4sccc4[C@H]3O2)C1 (relative stereo) [Compound 16] | 15.8 nM | 158 nM | 3160 nM | 20 nM |
| c1ccc2c(c1)Sc1sccc1[C@H]1O[C@@H](CN3CCC4(CC3)OCCO4)C[C@H]21 (relative stereo) [Compound 17] | 100 nM | 158 nM | > 10000 nM | 39.8 nM |
| CN(CCO)C[C@H]1C[C@@H]2c3ccccc3Sc3sccc3[C@H]2O1 (relative stereo) [Compound 18] | 39.8 nM |  | 31.6 nM | 39.8 nM |
| CNC[C@H]1C[C@H]2c3ccccc3Sc3sccc3[C@@H]2O1 (relative stereo) [Compound 21] | 3.98 nM | 501 nM | 126 nM | < 10 nM |
| OC1CCN(C[C@H]2C[C@H]3c4ccccc4Sc4sccc4[C@@H]3O2)C1 (relative stereo) [Compound 23] | 3.98 nM | 251 nM | 3160 nM | < 10 nM |
| CN(C)C1CCN(C[C@H]2C[C@@H]3c4ccccc4Sc4sccc4C3O2)C1 (relative stereo) [Compound 27] | 50.1 nM | 398 nM | > 10000 nM |  |
| CN(C)C1CCN(C[C@H]2C[C@H]3c4ccccc4Sc4sccc4[C@@H]3O2)C1 (relative stereo) [Compound 29] | 251 nM | 794 nM | > 10000 nM |  |
| CNCC1CC2c3ccccc3Sc3sccc3C2O1 (single isomer, unassigned) [Compound 31] | 27.5 nM | 1260 nM | 1000 nM |  |
| CN(C)C[C@@H]1C[C@@H]2c3ccccc3Sc3sccc3[C@H]2O1 [Compound 2] | 7.94 nM | 200 nM | 63.1 nM | < 10 nM |
| COC(=O)c1cc2c(s1)Sc1ccccc1[C@H]1C[C@H](CN(C)C)O[C@H]21 [Compound 4] | 158 nM | 3980 nM | 631 nM |  |
| CNCC1CC2c3ccccc3Cc3sccc3C2O1 (stereo not drawn) [Compound 6] | 39.8 nM | 2510 nM | 2000 nM | 39.8 nM |
| CNCC1CC2c3ccccc3Cc3sccc3C2O1 (stereo not drawn) [Compound 7] | 20 nM | 3160 nM | 2510 nM | 251 nM |
| CNCC1CC2c3ccccc3Cc3sccc3C2O1 (stereo not drawn) [Compound 8] | 63.1 nM | 3160 nM | 1000 nM | > 10000 nM |
| CN(C)CC1CC2c3ccccc3Sc3sccc3C2O1 (stereo not drawn) [Compound 9] | 25.1 nM | 398 nM | 316 nM | 15.8 nM |
| OCCC1CCN(CC2CC3c4ccccc4Sc4sccc4C3O2)CC1 (stereo not drawn) [Compound 11] | 39.8 nM | 6.31 nM | 7940 nM | 3.16 nM |
| CN(C)CC1CC2c3ccccc3Cc3sccc3C2O1 (stereo not drawn) [Compound 33] | 50.1 nM | 794 nM | 1000 nM | 100 nM |
| CCOC(=O)c1cc2c(s1)Sc1ccccc1C1CC(CN(C)C)OC21 (stereo not drawn) [Compound 34] | 316 nM | 3980 nM | 2510 nM | 158 nM |
| CN(C)CC1CC2c3ccccc3Cc3ccsc3C2O1 (stereo not drawn) [Compound 35] | 15.8 nM | 794 nM | 501 nM | 6.31 nM |
| CNCC1CC2c3ccccc3N(Cc3ccccc3)c3ncccc3C2O1 (stereo not drawn) [Compound 36] | 631 nM | 6310 nM | 5010 nM |  |
